Source: patent publication US20170112792A1, “ENHANCED ATRA-RELATED COMPOUNDS DERIVED FROM STRUCTURE-ACTIVITY RELATIONSHIPS AND MODELING FOR INHIBITING PIN1” (Beth Israel Deaconess Medical Center, Inc., priority 2014, published 2017)
Non-standard residues stand in square brackets, D forms with d. No end group written: not given here. d(pT) = C[C@H](OP(=O)(O)O)[C@@H](N)C(=O)O; Pip = O=C(O)[C@@H]1CCCCN1

Columns and labels:
[1] = tested on: vector control or Rab2A-overexpressing HMLEs; experiment: BFA treatment of HMLE cells (ERGIC53 staining, Erk1/2 blots); format: cell-based, human; settings: 10 μg/ml BFA
Source text: To elucidate how Rab2A overexpression or its Q58H mutation activates Erk1/2, we first examined whether Rab2A co-localized with Erk1/2. HMLE cells were starved and then stimulated by EGF to induce Erk1/2 phosphorylation. […] Overexpressing Rab2A Q58H at levels similar to the endogenous level also activated and colocalized with Erk1/2 like overexpressing WT Rab2A at 3 times higher levels (FIGS. 45A and 46A). To determine where Rab2A or its Q58H mutant colocalized with Erk1/2 at the perinuclear region, we performed double immunostaining Rab2A and ERGIC53, an ER-Golgi intermediate compartment (ERGIC) marker. Both Rab2A and its Q58H mutant colocalized with Erk1/2 at the ERGIC (FIG. 45B). Thus, overexpressed Rab2A or its Q58H mutant co-localizes with Erk1/2 and promotes Erk1/2 activation at the ERGIC. To examine whether Rab2A's vesicular trafficking function is associated with Erk activation, we used brefeldin A (BFA) to block the trafficking from the ERGIC to ER because BFA dissociates ADP ribosylation factor (ARF) effectors from Golgi and ERGIC membranes, leading to block in both anterograde and retrograde transport.

[2] = cited from earlier work
GST-Pin1 = GST-Pin1 (Homo sapiens, UniProt Q13526); experiment: fluorescence polarization (FP) pTide competition assay / FP-HTS; settings: Pin1 PPlase domain vs WW domain vs FKBP12
Sequence of GST-Pin1 (Q13526 whole entry, the tested form may be a part): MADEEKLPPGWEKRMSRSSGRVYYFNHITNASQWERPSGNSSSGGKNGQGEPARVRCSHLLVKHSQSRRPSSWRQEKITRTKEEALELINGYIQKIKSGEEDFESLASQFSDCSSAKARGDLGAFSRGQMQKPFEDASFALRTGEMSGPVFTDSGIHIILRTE
Source text: This sequence was optimized for solubility and binding to GST-PPI. […] Measurements of fluorescence polarization and fluorescence absorbance were made in black 384-well plates (Corning) using a Synergy II plate reader. Compounds were transferred to plates using a custom-built Seiko pin-transfer robot at the Institute for Chemistry and Cell Biology at Harvard Medical School. The assay can tolerate up to 10%/o DMSO.
Molecules that compete with pTide for binding to the active site, e.g., Pin1 substrates, were detected under equilibrium conditions. A Z score was used to identify and rank those molecules that were most competitive with pTide (e.g., that have higher binding affinity). A Z score is defined as Z=(x−μ)/σ, where x is a raw score, μ is the mean of the population, and σ is the standard deviation of the population. Molecules with the most negative Z scores represent those with the highest Pin1 binding affinity. The Z′ value for this assay was around 0.70 and was consistent for day-to-day performance, with a coefficient of variation in the range of 4-5%.
A lower value of Ki is indicative of higher association and, accordingly, higher affinity of the substrate to the protein.

Compound | Erk phosphorylation [1] | ERGIC structure (ERGIC53 staining) ([1]; 30 min) | cell permeability [2] | binding selectivity (GST-Pin1)
C[C@H]1CCC/C=C/[C@@H]2C[C@H](O)C[C@H]2[C@H](O)/C=C/C(=O)O1 [BFA, brefeldin A] | did not obviously affect Erk phosphorylation | ERGIC structures were damaged |  | 
Bth-D-phos.Thr-Pip-Nal ([Bth][d(pT)][Pip][Nal]) [pTide] |  |  | low cell permeability | selectively binds Pin1 at its PPlase domain and does not bind to the WW domain of Pin1 or to FKBP12
